Test results published in patent US12318403B2, “2′3′-cyclic dinucleotides and prodrugs thereof” (INSTITUTE OF ORGANIC CHEMISTRY AND BIOCHEMISTRY ASCR, V.V.I., priority 2019, dated 2025).
pEC50: −log10 of the molar value. Where two headings read alike, the source gives them in different places.

How the values were obtained:
[1] = molecular target: T1, human wild type STING (WT STING) (Homo sapiens, UniProt Q86WV6, H232R); test: Digitonin assay using 293T wtSTING-FL reporter cells; assay type: cell-based; conditions: 293T wtSTING-FL cells; compounds in Digitonin buffer 30 minutes, then 5 hours in medium; ISRE firefly luciferase
T1 sequence (Q86WV6 whole entry H232R): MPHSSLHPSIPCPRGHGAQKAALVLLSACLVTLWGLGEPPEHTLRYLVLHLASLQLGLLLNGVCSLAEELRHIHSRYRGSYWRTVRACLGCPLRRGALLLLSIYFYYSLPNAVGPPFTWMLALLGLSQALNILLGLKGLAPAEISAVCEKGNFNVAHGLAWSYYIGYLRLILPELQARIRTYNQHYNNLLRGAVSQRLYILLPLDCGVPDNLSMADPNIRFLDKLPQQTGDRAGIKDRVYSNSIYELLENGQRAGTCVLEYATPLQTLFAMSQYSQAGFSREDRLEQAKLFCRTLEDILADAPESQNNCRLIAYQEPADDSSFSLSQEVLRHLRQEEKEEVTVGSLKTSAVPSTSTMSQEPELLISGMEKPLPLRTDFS

[2] = system: peripheral blood mononuclear cell (PBMC); test: Peripheral blood mononuclear cell assay; conditions: average of one to four donors
[3] = molecular target: T1, human wild type STING (WT STING); test: 293T WT STING standard reporter assay; assay type: cell-based; conditions: 293T wtSTING-FL cells; standard reporter assay without digitonin; 7 hours; ISRE firefly luciferase; read-out: 293T WT STING EC50
[4] = molecular target: T2, human WT STING (Homo sapiens, UniProt Q86WV6, H232R); test: Differential Scanning Fluorimetry with WT STING; assay type: binding; conditions: thermal shift vs STING apoprotein; 150 μM CDN; truncated WT STING (residues 140-343)
T2 construct: truncated human WT STING or AQ STING (amino acid residues 140-343); 8xHis (N, cleaved yes); SUMO (N, cleaved yes); made in house; host or cells: E. coli Rosetta-gami B (DE3)
T2 sequence (Q86WV6 140-343 H232R): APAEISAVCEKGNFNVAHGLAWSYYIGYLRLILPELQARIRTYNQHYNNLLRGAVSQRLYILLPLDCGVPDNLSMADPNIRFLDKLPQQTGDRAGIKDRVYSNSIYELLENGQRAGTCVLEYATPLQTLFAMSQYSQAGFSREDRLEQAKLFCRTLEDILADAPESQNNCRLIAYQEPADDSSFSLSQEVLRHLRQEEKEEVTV

[5] = molecular target: T3, AQ human STING (G230A-R293Q) (Homo sapiens, UniProt Q86WV6, G230A/H232R/R293Q); test: Differential Scanning Fluorimetry with AQ STING; assay type: binding; conditions: thermal shift vs STING apoprotein; 150 μM CDN; truncated AQ STING (residues 140-343)
T3 construct: truncated human WT STING or AQ STING (amino acid residues 140-343); 8xHis (N, cleaved yes); SUMO (N, cleaved yes); made in house; host or cells: E. coli Rosetta-gami B (DE3)
T3 sequence (Q86WV6 140-343 G230A/H232R/R293Q): as the sequence (Q86WV6 140-343 H232R) above, with G91A, R154Q counted along it

[6] = read-out: PBMC EC50 IFN-α, compounds 1h, washed, 15 hour incubation, interferon-alpha level in medium
[7] = read-out: PBMC EC50 IFN-γ, compounds 1h, washed, 15 hour incubation, interferon-gamma level in medium
[8] = read-out: PBMC EC50 TNF-α, compounds 1h, washed, 15 hour incubation, tumor necrosis factor-alpha level in medium
[9] = PBMC, read-out: PBMC EC50 IFN-α, compounds 1h, washed, 15 hour incubation, interferon-alpha level in medium
[10] = PBMC, read-out: PBMC EC50 TNF-α, compounds 1h, washed, 15 hour incubation, tumor necrosis factor-alpha level in medium
[11] = PBMC, read-out: PBMC EC50 IFN-γ, compounds 1h, washed, 15 hour incubation, interferon-gamma level in medium

Row | SMILES | pEC50 [1] | pEC50 [2, 6] | pEC50 [2, 7] | pEC50 [2, 8] | pEC50 [3] | DSF ΔTm WT STING [4] [°C] | DSF ΔTm AQ STING [5] [°C] | pEC50 [2, 9] | pEC50 [2, 10] | pEC50 [2, 11]
1 | Nc1nc2c(ncn2[C@@H]2O[C@@H]3COP(=O)(O)CO[C@H]4[C@@H](F)[C@H](n5cnc6c(N)ncnc65)O[C@@H]4COP(=O)(S)O[C@@H]2[C@@H]3F)c(=O)[nH]1 (single isomer, unassigned) [Compound 11b] | 8.00 | 3.64 | 4.25 | 3.77 | 5.72 | 22.4 | 29.2 | – | – | –
2 | Nc1nc2c(ncn2[C@@H]2O[C@@H]3COP(=O)(S)CO[C@H]4[C@@H](F)[C@H](n5cnc6c(N)ncnc65)O[C@@H]4COP(=O)(S)O[C@@H]2[C@@H]3F)c(=O)[nH]1 (single isomer, unassigned) [Compound 17c] | 8.15 | 3.97 | 4.38 | 4.08 | 6.85 | 18.6 | 25.4 | – | – | –
3 | Nc1ncnc2c1ncn2[C@@H]1O[C@@H]2COP(=O)(O)O[C@@H]3[C@H](F)[C@@H](COP(=O)(O)CO[C@H]2[C@H]1F)O[C@H]3n1cnc2c(N)ncnc21 [Compound 28, (1S,6R,8R,9R,10R,16R,18R,19R)-8,18-bis(6-amino-9H-purin-9-yl)-9,19-difluoro-3,13-dihydroxy-2,4,7,11,14,17-hexaoxa-3λ^5,13λ^5-diphosphatricyclo[14.2.1.0^6,^10]nonadecane-3,13-dione] | – | – | – | – | 5.21 | 9.3 | 13.3 | – | – | –
4 | Nc1nc2c(ncn2[C@@H]2O[C@@H]3COP(=O)(O)CO[C@H]4[C@@H](F)[C@H](n5cnc6c(N)ncnc65)O[C@@H]4COP(=O)(S)O[C@@H]2[C@@H]3F)c(=O)[nH]1 (single isomer, unassigned) [Compound 11a] | 7.52 | – | 3.82 | – | 5.60 | 17.3 | 23.1 | 3.54 | 3.74 | –
5 | Nc1ncnc2c1ncn2[C@@H]1O[C@@H]2COP(=O)(S)O[C@@H]3[C@H](F)[C@@H](COP(=O)(O)CO[C@H]2[C@H]1F)O[C@H]3n1cnc2c(=O)[nH]cnc21 (single isomer, unassigned) [Compound 13a] | 8.05 | – | – | – | 5.89 | 18.3 | 21.8 | – | – | –
6 | Nc1nc2c(ncn2[C@@H]2O[C@@H]3COP(=O)(S)CO[C@H]4[C@@H](F)[C@H](n5cnc6c(N)ncnc65)O[C@@H]4COP(=O)(O)O[C@@H]2[C@@H]3F)c(=O)[nH]1 (single isomer, unassigned) [Compound 15a] | 7.70 | – | – | – | 5.64 | 13.8 | 19.7 | – | – | –
7 | Nc1ncnc2c1ncn2[C@@H]1O[C@@H]2COP(=O)(S)O[C@@H]3[C@H](F)[C@@H](COP(=O)(O)CO[C@H]2[C@H]1F)O[C@H]3n1cnc2c(=O)[nH]cnc21 (single isomer, unassigned) [Compound 13b] | 8.00 | – | – | – | 5.96 | 20.9 | 26.0 | 3.82 | 4.19 | 4.15
8 | Nc1nc2c(ncn2[C@@H]2O[C@@H]3COP(=O)(S)CO[C@H]4[C@@H](F)[C@H](n5cnc6c(N)ncnc65)O[C@@H]4COP(=O)(S)O[C@@H]2[C@@H]3F)c(=O)[nH]1 (single isomer, unassigned) [Compound 17a] | 6.27 | – | – | – | 4.99 | 8.7 | 14.3 | – | – | –
9 | Nc1nc2c(ncn2[C@@H]2O[C@@H]3COP(=O)(S)CO[C@H]4[C@@H](F)[C@H](n5cnc6c(N)ncnc65)O[C@@H]4COP(=O)(O)O[C@@H]2[C@@H]3F)c(=O)[nH]1 (single isomer, unassigned) [Compound 15b] | – | – | – | – | 5.33 | 19.4 | 27.0 | – | – | –
10 | Nc1nc2c(ncn2[C@@H]2O[C@@H]3COP(=O)(S)CO[C@H]4[C@@H](F)[C@H](n5cnc6c(N)ncnc65)O[C@@H]4COP(=O)(S)O[C@@H]2[C@@H]3F)c(=O)[nH]1 (single isomer, unassigned) [Compound 17d] | 7.92 | – | – | – | 6.40 | 19.2 | 27.6 | 4.16 | 4.17 | 4.64
11 | Nc1ncnc2c1ncn2[C@@H]1O[C@@H]2COP(=O)(O)O[C@H]3[C@@H](O)[C@H](n4cnc5c(N)ncnc54)O[C@@H]3COP(=O)(O)O[C@H]2[C@H]1O [3′3′-c-di-AMP, reference compound] | 6.52 | – | – | – | 3.69 | 2.5 | 9.0 | – | – | –
